For 13 compounds, EC50 and IC50 results are on record in patent publication US8987195B2 (priority 2012, dated 2015).

One assay concerns HCV genotype 1b replicon. In words: HCV replicon assay, genotype 1b replicon EC50. It is filed as cell-based, Hepatitis C virus. Particulars: read-out: EC50 [gt-1b]. In a few lines: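 Potency comes from a four-parameter fit of signal as percent of DMSO control. Replicon-bearing cells were treated 24-48 hours with a compound dilution series in absence of G418, and replicon RNA was quantified normalized to cyclophilin A RNA, or luciferase read.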
(Replicon systems follow genome replication, usually without infectious particles.)

The target of assay [1] is HCV NS3/4A protease genotype 1b (Hepatitis C virus genotype 1b, UniProt P26663). The experiment in a line: HCV NS3/4A protease time-resolved fluorescence (TRF) assay, Ki against genotype 1b. Particulars: for pIC50: IC50 [gt-1b], NS3/4A protease TRF assay, genotype 1b enzyme 0.2 nM; for IC50: IC50 [gt-1b] (nM), NS3/4A genotype 1b, enzyme 0.2 nM. The class given is biochemical. Summed up: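 Time-resolved fluorescence readout of NS3/4A cleavage of 25 nM europium-labelled peptide over 2.5 h at room temperature, enzyme levels set for signal/background 10–30 (0.2, 0.4, 0.025 nM for 1b, A156T, 3a). Ki by IC50=Ki(1+[S]/KM).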

The mark [2] stands for this setting: Hepatitis C virus, HCV replicon, genotype 1b.
Setting [3] is: Hepatitis C virus, genotype 1b replicon.

pEC50, pIC50: −log10 of the molar value. Like-named read-outs stand apart in the source and are kept apart here.

For orientation: pEC50 means −log10 of the EC50, conventionally taken in molar units. The pIC50 is the negative decadic logarithm of the IC50, by convention in mol/L. The low end stands for a high IC50, the high end for a low IC50. As usually defined, the IC50 is the concentration that gives 50% inhibition.

For the compound `CCCOC(=O)N[C@H]1CCCCC/C=C\[C@@H]2C[C@@]2(C(=O)NS(=O)(=O)C2(C)CC2)NC(=O)[C@@H]2C[C@]3(CCc4c(c(C(F)(F)F)nc5ccc(OC)cc45)O3)CN2C1=O` [Example 448, propyl [(2R,6S,12Z,13aS,14aR,16aS)-9′-methoxy-14a-{[(1-methylcyclopropyl)sulfonyl]carbamoyl}-5,16-dioxo-5′-(trifluoromethyl)-1,1′,2′,5,6,7,8,9,10,11,13a,14,14a,15,16,16a-hexadecahydrospiro[cyclopropa[e]pyrrolo[1,2-a][1,4]diazacyclopentadecine-2,3′-pyrano[2,3-c]quinolin]-6-yl]carbamate], the pEC50 in the assay with HCV genotype 1b replicon (setting [2]) is 8.57. The pIC50 in assay [1] was 11.22.

For the compound `Cc1nc2ccccc2c2c1O[C@]1(CC2)C[C@H]2C(=O)N[C@]3(C(=O)NS(=O)(=O)C4(C)CC4)C[C@H]3/C=C\CCCCC[C@H](NC(=O)OC(C)(C)C(F)(F)F)C(=O)N2C1` [Example 47], the negative-log EC50 (pEC50) with HCV genotype 1b replicon (Hepatitis C virus, GETYPE1B|GT1B, genotype 1b replicon) is 8.43. In assay [1], this compound had a concentration for half-maximal inhibition (IC50) of 0.011 nM.

Turning to `COc1ccc2nc(C)c3c(c2c1)[C@H](F)C[C@]1(C[C@H]2C(=O)N[C@]4(C(=O)NS(=O)(=O)C5(C)CC5)C[C@H]4/C=C\CCCCC[C@H](NC(=O)OC(C)C(C)(C)C)C(=O)N2C1)O3` (stereo partly drawn) [Example 404, 3,3-dimethylbutan-2-yl [(l′R,2S,6S,12Z,13aS,14aR,16aS)-1′-fluoro-9′-methoxy-5′-methyl-14a-{[(1-methylcyclopropyl)sulfonyl]carbamoyl}-5,16-dioxo-1,1′,2′,5,6,7,8,9,10,11,13a,14,14a,15,16,16a-hexadecahydrospiro[cyclopropa[e]pyrrolo[1,2-a][1,4]diazacyclopentadecine-2,3′-pyrano[2,3-c]quinolin]-6-yl]carbamate], in the assay on HCV genotype 1b replicon (setting [2]), the pEC50 was 8.91. In assay [1], this compound showed a negative-log IC50 (pIC50) of 10.74.

On to `Cc1nc2ccc(Cl)cc2c2c1O[C@]1(CC2)C[C@H]2C(=O)N[C@]3(C(=O)NS(=O)(=O)C4(C)CC4)C[C@H]3/C=C\CCCCC[C@H](NC(=O)OC3CCCC3)C(=O)N2C1` [Example 182, cyclopentyl [(2R,6S,12Z,13aS,14aR,16aS)-9′-chloro-5′-methyl-14a-{[(1-methylcyclopropyl)sulfonyl]carbamoyl}-5,16-dioxo-1,1′,2′,5,6,7,8,9,10,11,13a,14,14a,15,16,16a-hexadecahydrospiro[cyclopropa[e]pyrrolo[1,2-a][1,4]diazacyclopentadecine-2,3′-pyrano[2,3-c]quinolin]-6-yl]carbamate], for which the pEC50 in the assay on HCV genotype 1b replicon (Hepatitis C virus, genotype 1b replicon, K+ salt) is 8.77. The IC50 in assay [1] (K+ salt) worked out at 0.009 nM.

Consider `CC(C)(C)OC(=O)N[C@H]1CCCCC/C=C\[C@@H]2C[C@@]2(C(=O)O)NC(=O)[C@@H]2C[C@]3(CCc4c(cnc5ccccc45)O3)CN2C1=O` [Example 101, (2R,6S,12Z,13aS,14aR,16aS)-6-[(tert-butoxycarbonyl)amino]-5,16-dioxo-1,1′,2′,6,7,8,9,10,11,13a,14,15,16,16a-tetradecahydrospiro[cyclopropa[e]pyrrolo[1,2-a][1,4]diazacyclopentadecine-2,3′-pyrano[2,3-c]quinoline]-14a(5H)-carboxylic acid], for which, in the assay with HCV genotype 1b replicon (setting [3]), the negative logarithm of the EC50 (pEC50) was less than 7.00. The IC50 in assay [1] worked out at 38.2 nM.

As for `COc1ccc2nc(C(F)(F)F)c3c(c2c1)[C@@H](F)C[C@]1(C[C@H]2C(=O)N[C@]4(C(=O)NS(=O)(=O)C5(C)CC5)C[C@H]4/C=C\CCCCC[C@H](NC(=O)OC(C)(C)C)C(=O)N2C1)O3` [Example 426, tert-butyl [(l′S,2S,6S,12Z,13aS,14aR,16aS)-1′-fluoro-9′-methoxy-14a-{[(1-methylcyclopropyl)sulfonyl]carbamoyl}-5,16-dioxo-5′-(trifluoromethyl)-1,1′,2′,5,6,7,8,9,10,11,13a,14,14a,15,16,16a-hexadecahydrospiro[cyclopropa[e]pyrrolo[1,2-a][1,4]diazacyclopentadecine-2,3′-pyrano[2,3-c]quinolin]-6-yl]carbamate], in the assay with HCV genotype 1b replicon (setting [2]), the negative logarithm of the EC50 (pEC50) is 7.67. In assay [1], this compound gave a negative logarithm of the IC50 (pIC50) of 9.22.

In the case of `COCC1(S(=O)(=O)NC(=O)[C@@]23C[C@H]2/C=C\CCCCC[C@H](NC(=O)OCC(C)(C)C)C(=O)N2C[C@@]4(CCc5c(c(C(F)(F)F)nc6ccc(OC)cc56)O4)C[C@H]2C(=O)N3)CC1` [Example 496, 2,2-dimethylpropyl [(2R,65,12Z,13aS,14aR,16aS)-9′-methoxy-14a-({[1-(methoxymethyl)cyclopropyl]sulfonyl}carbamoyl)-5,16-dioxo-5′-(trifluoromethyl)-1,1′,2′,5,6,7,8,9,10,11,13a,14,14a,15,16,16a-hexadecahydrospiro[cyclopropa[e]pyrrolo[1,2-a][1,4]diazacyclopentadecine-2,3′-pyrano[2,3-c]quinolin]-6-yl]carbamate], in the assay with HCV genotype 1b replicon (setting [2]), the negative logarithm of the EC50 (pEC50) is 8.16. This compound also gave a negative logarithm of the IC50 (pIC50) in assay [1] of 10.57.

As to `Cc1nc2ccccc2c2c1O[C@]1(CC2)C[C@H]2C(=O)N[C@]3(C(=O)NS(=O)(=O)C4(C)CC4)C[C@H]3/C=C\CCCCC[C@H](NC(=O)OCC(C)(C)C)C(=O)N2C1` [Example 130, 2,2-dimethylpropyl [(2R,6S,12Z,13aS,14aR,16aS)-5′-methyl-14a-{[(1-methylcyclopropyl)sulfonyl]carbamoyl}-5,16-dioxo-1,1′,2′,5,6,7,8,9,10,11,13a,14,14a,15,16,16a-hexadecahydrospiro[cyclopropa[e]pyrrolo[1,2-a][1,4]diazacyclopentadecine-2,3′-pyrano[2,3-c]quinolin]-6-yl]carbamate], the pEC50 in the assay with HCV genotype 1b replicon (setting [3]) was 8.71. The compound also displayed an IC50 in assay [1] of 0.01 nM.

For the compound `COc1ccc2nc(C(F)(F)F)c3c(c2c1)CC[C@]1(C[C@H]2C(=O)N[C@]4(C(=O)NS(=O)(=O)C5(C)CC5)C[C@H]4/C=C\CCCCC[C@H](NC(=O)OC4(C(C)C)CC4)C(=O)N2C1)O3` [Example 449, 1-(propan-2-yl)cyclopropyl [(2R,6S,12Z,13aS,14aR,16aS)-9′-methoxy-14a-{[(1-methylcyclopropyl)sulfonyl]carbamoyl}-5,16-dioxo-5′-(trifluoromethyl)-1,1′,2′,5,6,7,8,9,10,11,13a,14,14a,15,16,16a-hexadecahydrospiro[cyclopropa[e]pyrrolo[1,2-a][1,4]diazacyclopentadecine-2,3′-pyrano[2,3-c]quinolin]-6-yl]carbamate], the pEC50 with HCV genotype 1b replicon (setting [2]) is 8.86. In assay [1], this compound showed a pIC50 of 11.15.

With `Cc1nc2ccccc2c2c1O[C@]1(CC2)C[C@H]2C(=O)N[C@]3(C(=O)NS(=O)(=O)C4(C)CC4)C[C@H]3/C=C\CCCCC[C@H](N(CCc3ccccc3)CCc3ccccc3)C(=O)N2C1` [Example 173, (2R,6S,12Z,13aS,14aR,16aS)-6-[bis(2-phenylethyl)amino]-5′-methyl-N-[(1-methylcyclopropyl)sulfonyl]-5,16-dioxo-1,1′,2′,6,7,8,9,10,11,13a,14,15,16,16a-tetradecahydrospiro[cyclopropa[e]pyrrolo[1,2-a][1,4]diazacyclopentadecine-2,3′-pyrano[2,3-c]quinoline]-14a(5H)-carboxamide], the negative-log EC50 (pEC50) in the assay with HCV genotype 1b replicon (setting [3]) was less than 7.00. In assay [1], this compound had a half-inhibitory concentration (IC50) of 6.27 nM.

With `Cc1nc2ccccc2c2c1O[C@]1(CC2)C[C@H]2C(=O)N[C@]3(C(=O)NS(=O)(=O)C4(C)CC4)C[C@H]3/C=C\CCCCC[C@H](NC(=O)OC3CC(F)(F)C3(F)F)C(=O)N2C1` (stereo partly drawn) [Example 321, 2,2,3,3-tetrafluorocyclobutyl [(2R,6S,12Z,13aS,14aR,16aS)-5′-methyl-14a-{[(1-methylcyclopropyl)sulfonyl]carbamoyl}-5,16-dioxo-1,1′,2′,5,6,7,8,9,10,11,13a,14,14a,15,16,16a-hexadecahydrospiro[cyclopropa[e]pyrrolo[1,2-a][1,4]diazacyclopentadecine-2,3′-pyrano[2,3-c]quinolin]-6-yl]carbamate], the negative logarithm of the EC50 (pEC50) with HCV genotype 1b replicon (genotype 1b replicon) is 8.15. The concentration for half-maximal inhibition (IC50) in assay [1] is 0.03 nM.

For `CCNC(=O)N[C@H]1CCCCC/C=C\[C@@H]2C[C@@]2(C(=O)NS(=O)(=O)C2(C)CC2)NC(=O)[C@@H]2C[C@]3(CCc4c(c(C)nc5ccccc45)O3)CN2C1=O` [Example 286, (2R,6S,12Z,13aS,14aR,16aS)-6-[(ethylcarbamoyl)amino]-5′-methyl-N-[(1-methylcyclopropyl)sulfonyl]-5,16-dioxo-1,1′,2′,6,7,8,9,10,11,13a,14,15,16,16a-tetradecahydrospiro[cyclopropa[e]pyrrolo[1,2-a][1,4]diazacyclopentadecine-2,3′-pyrano[2,3-c]quinoline]-14a(5H)-carboxamide], the negative logarithm of the EC50 (pEC50) in the assay on HCV genotype 1b replicon (setting [3]) is 6.93. Half-maximal inhibition in assay [1] (IC50) required 0.015 nM.

Regarding `Cc1nc2c(F)cccc2c2c1O[C@]1(CC2)C[C@H]2C(=O)NC3(C(=O)NS(=O)(=O)C4(C)CC4)C[C@H]3/C=C\CCCCC[C@H](NC(=O)OC(C)(C)C)C(=O)N2C1` (stereo partly drawn) [Example 45, tert-Butyl (1aR,3aS,3′R,9S,16aS,Z)-7′-fluoro-5′-methyl-1a-(1-methylcyclopropylsulfonylcarbamoyl)-3,8-dioxo-1a,1′,2,2′,3,3a,4,6,8,9,10,11,12,13,14,16a-hexadecahydro-1H-spiro[cyclopropa[e]pyrrolo[1,2-a][1,4]diazacyclopentadecine-5,3′-pyrano[2,3-c]quinoline]-9-ylcarbamate], the pEC50 in the assay with HCV genotype 1b replicon (setting [3]) is 8.96. The same compound gave an IC50 in assay [1] of 0.011 nM.
